pIC50, pKd: −log10 of the molar value. Read-outs that look alike come from different tables or passages of the source. *1 amine or outer side, *2 acyl side, *3 side chain or, on linkers, in order; H or OH if unused. Where a SMILES comes first, the peptide text is derived from it. Side-chain parts run from the residue outwards. [ ]: non-standard residue; d: D form. The star is where a group is joined. NH(4-amidinophenyl) = N=C(N)c1ccc(N*)cc1; dPhe(4-Cl) = N[C@H](Cc1ccc(Cl)cc1)C(=O)O; d2Nal = N[C@H](Cc1ccc2ccccc2c1)C(=O)O; dCit = NC(=O)NCCC[C@@H](N)C(=O)O; d3Pal = N[C@H](Cc1cccnc1)C(=O)O; Suc = O=C(CCC(=O)[*:2])[*:1]
What was measured:
[1] = target: T1, human LH-RH receptor (Homo sapiens, UniProt P30968); experiment: Competitive binding test (displacement of [125I] Cetrorelix) on cell clone L3.5/78
T1 construct: expressed in transfected cells
T1 sequence (P30968 1-328): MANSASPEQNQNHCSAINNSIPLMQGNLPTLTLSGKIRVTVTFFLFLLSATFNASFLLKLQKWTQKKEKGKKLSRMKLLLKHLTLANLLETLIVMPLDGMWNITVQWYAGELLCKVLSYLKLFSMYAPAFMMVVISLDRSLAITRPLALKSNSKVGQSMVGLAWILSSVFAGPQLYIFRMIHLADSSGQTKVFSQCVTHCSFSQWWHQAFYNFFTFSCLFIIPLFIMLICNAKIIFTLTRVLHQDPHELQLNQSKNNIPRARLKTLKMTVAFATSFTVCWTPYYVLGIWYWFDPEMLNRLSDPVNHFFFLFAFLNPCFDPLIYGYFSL
Procedure: Method for the determination of the binding affinity (dissociation constant Kd):
The binding affinity was determined by a competitive binding test ("displacement binding experiment"; Beckers et al. Eur. J. Biochem. 231, 535-543, 1995). The radiolabelled ligand used is [^125 I] Cetrorelix (specific activity 5-10×10^5 dpm/pmol; dissolved in 20% v:v acetonitrile, 0.2% w:v albumin, 0.1% w:v TFA, ~80% v:v aqua). The binding ability of the iodinated peptide is between 60% and 85%. The non-labelled test compounds used are Cetrorelix, Example 1, Example 2 and […] in solution. The substances are employed in concentrations of 0.01 nM-1000 nM (Cetrorelix, Example 1, Example 2) or 0.01 μM-10 μM (Example 56).
The cells of the individual cell clone L3.5/78 verexpressing the human LH-RH receptor which are used for the binding test are removed with PBS/EDTA (PBS without Ca^2+ /Mg^2+ /1 mM EDTA) from a cell culture dish grown under non-confluent conditions, the cell count is determined and the cells are resuspended in incubation medium (Dulbecco's modified Eagle Medium with 4.5 g/l glucose, 10 mM Hepes pH 7.5, 0.5% w:v BSA, 1 g/l bacitracin, 0.1 g/l SBTI, 0.1% w:v NaN3) at a corresponding cell density. 200 μl of silicone/paraffin oil mixture (84/16% by volume) are initially introduced into special 400 μl reaction vessels (Renner, Beckman type) and 50 μl of the cell suspension (2.5×10^5 cells) are pipetted onto it. 50 μl of binding medium containing [^125 I] Cetrorelix and the compound to be tested at the appropriate concentration are added to the cell suspension on the silicone/paraffin oil layer. The mixture is then incubated with rotation for 60 min at 37° C. in a warm cabinet. After this step, it is centrifuged at 9000 rpm (room temperature) for 2 min in the Heraeus Biofuge 15 in the HTA 13.8 rotor. In the course of this, the cells pelletize through the silicone/paraffin oil layer and are thus separated from the binding medium. After centrifugation, the reaction vessels are shock-frozen in liquid N2 and the tip of the reaction vessel (cell pellet) is cut off with a pair of pincers and the tip containing the cell pellet (bound ligand [^125 I] Cetrorelix) and the supernatant (unbound, free ligand [^125 I] Cetrorelix) are transferred to counting tubes. To determine the maximum binding (Bo), no competitor is added. For the determination of non-specific binding, 1 μM unlabelled Cetrorelix is added for competition. At ≤10% of the total binding Bo, the non-specific binding is low. Quantification is carried out in a γ-counter; analysis is carried out using the EBDA/ligand V3.0 programme (McPherson, J. Pharmacol. Methods 14, 213-228, 1985). Plotting in the dose-response graph makes possible the estimation of the IC50 (concentration which causes 50% inhibition of the reaction at the receptor) and the EBDA/ligand programme calculates the dissociation constant Kd [nM] from this.

[2] = Water solubility; assay type: physicochemical
[3] = test system: histamine release; experiment: Histamine release in vitro
[4] = test system: testosterone in the blood; experiment: Hormone-suppressive action: testosterone suppression in the healthy male rat; assay type: in vivo
Procedure: To determine the suppression of testosterone in the blood of healthy male rats, the substance was injected subcutaneously into the right flank of the animals. The dosage was 1.5 mg/kg in the case of Example 1 and Example 2 and 10 mg/kg in the case of Example 56. To check the testosterone values, about 300 μl of blood were taken from the animals from the sublingual vein at the times 0, 2, 4, 8 (only Example 56), 24, 48, 72 and 96 hours, and then every 3 days until the end of suppression. […] Example 56 (10 mg/kg s.c.) suppressed the testosterone level in all 5 animals even after 2 hours and maintained this action for up to 8 hours. At the next measuring point (24 h), the testosterone values rose again (FIG. 6).

[5] = target: T1, human LH-RH receptor; experiment: Functional assay: inhibition of LH-RH-stimulated IP3 formation in cell clone L 3.5/78; assay type: cell-based; settings: for pIC50: stimulation with 10 nM LH-RH, estimated from dose-response curve
Procedure: Method for the determination of IP3 (D-myo-[…]): a subconfluent culture of the cell clone (L 3.5/78) overexpressing the human LH-RH receptor is washed 1× with PBS, the cells are removed with PBS/EDTA and the cell suspension is pelletted. The cells are resuspended in incubation medium (Dulbecco's modified Eagle Medium with 4.5 g/l of glucose, 10 mM Hepes pH 7.5, 0.5% w:v BSA, 5 mM of LiCl, 1 g/l of bacitracin, 0.1 g/l of SBTI), aliquoted into 1.5 ml reaction vessels and preincubated at 37° C. for 30 min. 4×10^6 cells in a 500 μl volume are needed per measuring point. After the preincubation step, LH-RH (stock solution 0.5 mM in 10 mM tris pH 7.5, 1 mM dithiothreitol, 0.1% w:v BSA/Bachem Art # H4005) are added to the cell suspension at a final concentration of 10 nM. The action of an antagonist is tested by simultaneous addition at the corresponding concentration (for example 0.0316, 0.1, 0.316 etc. up to 100 nM for Example 2). As a negative control, cells without added LH-RH are incubated. After incubation at 37° C. for 15 min, IP3 formed is isolated from the cells by means of trichloroacetic acid (TCA) extraction. To this end, 500 μl of ice-cold 15% (w:v) TCA solution are added to the cell suspension. The resulting precipitate is pelletted by centrifugation at […] in the Heraeus Biofuge 15R centrifuge at 2000×g for 15 min. The supernatant of 950 μl is extracted 3× with 10 vol of cold, water-saturated diethyl ether in a 15 ml vessel standing on ice. After the last extraction step, the solution is adjusted to a pH of 7.5 with 0.5 M NaHCO3 solution.
The determination of the IP3 concentration in the cell extracts is carried out by means of a sensitive competitive binding test using an IP3 binding protein, labelled [^3 H]-IP3 and unlabelled IP3. To this end, an assay kit from Amersham (TRK 1000) is used; the determination is carried out as described in the assay protocol. After carrying out the various steps, 2 ml of scintillator for aqueous samples (Rotiszint Ecoplus) is finally added, the resuspended pellet containing the bound [^3 H]-IP3 is carefully mixed with it, and measured in a β-scintillation counter. The amount of cellular IP3 is calculated using a standard curve and a dose-response curve is set up. The IC50 can be estimated from the inflection point of this curve.

[6] = [125I] Cetrorelix as ligand, single curves of FIG. 1, read-out: binding affinity as the dissociation constant Kd (competition curves of FIG. 1)
[7] = mean values from various experiments, number of experiments in brackets, read-out: Affinity human LH-RH receptor (dissociation constant Kd)
[8] = 10 mg/kg s.c., healthy male rats, all 5 animals

SMILES	pKd [1, 6]	pKd [1, 7]	H2O Solubility [2] [mg/mL]	(IC50) Histamine releage [3] [µg/mL]	pIC50 [5]	other results
CC(=O)N[C@H](Cc1ccc2ccccc2c1)C(=O)N[C@H](Cc1ccc(Cl)cc1)C(=O)N[C@H](Cc1cccnc1)C(=O)N[C@@H](CO)C(=O)N[C@@H](Cc1ccc(O)cc1)C(=O)N[C@H](CCCCNC(=O)C1CNC(=O)N1)C(=O)N[C@@H](CC(C)C)C(=O)N[C@@H](CCCNC(=N)N)C(=O)N1CCC[C@H]1C(=O)N[C@H](C)C(N)=O (single isomer, unassigned) [Example 1, Ac-D-Nal(2)-D(pCl)Phe-D-Pal(3)-Ser-Tyr-D-[ε-N'-(imidazolidin-2-on-4-yl)formyl]-Lys-Leu-Arg-Pro-D-Ala-NH2]	9.52	9.51	27	31.9		
CC(=O)N[C@H](Cc1ccc2ccccc2c1)C(=O)N[C@H](Cc1ccc(Cl)cc1)C(=O)N[C@H](Cc1cccnc1)C(=O)N[C@@H](CO)C(=O)N[C@@H](Cc1ccc(O)cc1)C(=O)N[C@H](CCCCNC(=O)C1CNC(=O)N1)C(=O)N[C@@H](CC(C)C)C(=O)N[C@@H](CCCNC(=N)N)C(=O)N1CCC[C@H]1C(=O)N[C@H](C)C(N)=O (single isomer, unassigned) [Example 3]		9.77				
CC(=O)N[C@H](Cc1ccc2ccccc2c1)C(=O)N[C@H](Cc1ccc(Cl)cc1)C(=O)N[C@H](Cc1cccnc1)C(=O)N[C@@H](CO)C(=O)N[C@@H](Cc1ccc(O)cc1)C(=O)N[C@H](CCCNC(N)=O)C(=O)N[C@@H](CC(C)C)C(=O)N[C@@H](CCCNC(=N)N)C(=O)N1CCC[C@H]1C(=O)N[C@H](C)C(N)=O [Cetrorelix, Ac-D-Nal(2)-D-p-Cl-Phe-D-Pal(3)-Ser-Tyr-D-Cit-Leu-Arg-Pro-D-Ala-NH2, reference compound] (Ac-[d2Nal][dPhe(4-Cl)][d3Pal]SY[dCit]LRP[dA]-NH2)	9.67	9.69	9	9.7		(1.5 mg/kg, single dose) testosterone suppression rats ([4]; 1.5 mg/kg, single dose, rats): 144 h
CC(=O)N[C@H](Cc1ccc2ccccc2c1)C(=O)N[C@H](Cc1ccc(Cl)cc1)C(=O)N[C@H](Cc1cccnc1)C(=O)N[C@@H](CO)C(=O)N[C@@H](Cc1ccc(O)cc1)C(=O)N[C@H](CCCCNC(=O)CCC(=O)Nc1ccc(C(=N)N)cc1)C(=O)N[C@@H](CC(C)C)C(=O)N[C@@H](CCCNC(=N)N)C(=O)N1CCC[C@H]1C(=O)N[C@H](C)C(N)=O [Example 2, Ac-D-Nal(2)-D(pCl)Phe-D-Pal(3)-Ser-Tyr-D-[ε-N'-4-(4-amidinophenyl)amino-1,4-dioxobutyl]-Lys-Leu-Arg-Pro-D-Ala-NH2] (Ac-[d2Nal][dPhe(4-Cl)][d3Pal]SY[dK]([Suc-NH(4-amidinophenyl)])LRP[dA]-NH2)	9.98		23	17.1	~9.40	pKd ([1]; quoted in Example 84, read-out: in vitro binding affinity Kd, competitive binding test using [125I]-Cetrorelix): 9.96
CC(=O)N[C@H](Cc1ccc2ccccc2c1)C(=O)N[C@H](Cc1ccc(Cl)cc1)C(=O)N[C@H](Cc1cccnc1)C(=O)N[C@@H](CO)C(=O)N[C@@H](Cc1ccc(O)cc1)C(=O)N[C@H](CCCCNC(=O)CCC(=O)Nc1ccc(C(=N)N)cc1)C(=O)N[C@@H](CC(C)C)C(=O)N[C@@H](CCCNC(=N)N)C(=O)N1CCC[C@H]1C(=O)N[C@H](C)C(N)=O [Example 4] (Ac-[d2Nal][dPhe(4-Cl)][d3Pal]SY[dK]([Suc-NH(4-amidinophenyl)])LRP[dA]-NH2)		9.69				
N=C(N)c1ccc(NC(=O)CCC(=O)NCCCCC(NC(=O)OCc2ccccc2)C(N)=O)cc1.O=C(O)C(F)(F)F (stereo not shown) [Example 56]		5.97			~5.40	functional character at the LH-RH receptor ([5]; 10 nM LH-RH, IP3 formation): functional antagonists of LH-RH; agonistic activity (stimulation of IP3 synthesis by the substance itself) ([5]; without LH-RH): not possible to determine any agonistic activity; duration of testosterone suppression [4, 8]: up to 8 hours; time at which testosterone level was already suppressed [4, 8]: 2 h

— patent US5942493A, “LH-RH antagonists having improved action” (ASTA Medica Aktiengesellschaft, priority 1995, dated 1999)
